Experimental data: US11976054B2, “Amide derivative and preparation method therefore and use thereof in medicine” (Chengdu Baiyu Pharmaceutical Co., Ltd., priority 2019, dated 2024)

Key:
[1] = test system: IL-1β release in human PBMCs; assay: Assay of IL-1β release in human PBMCs; type: cell-based; settings: 10 ng/mL LPS 3 h, compound 0.5 h, 5 mM ATP 1 h, ELISA
Procedure: 5 mL of human venous whole blood from a healthy donor was placed in a Li-heparin tube. PBMCs were isolated and incubated in a culture medium containing 10 ng/mL LPS at 37° C./5% CO2 for 3 h. Cells were plated in a 96-well plate at 50 μL per well. 25 μL of compound or solvent control was added to each well and 3-fold diluted in gradient from a maximum concentration of 10 μM, and 8 gradient concentrations were set. The mixtures were incubated for 0.5 h. 25 μL of ATP at a final concentration of 5 mM was added to each well, and the resulting mixtures were incubated for 1 h. After the incubation, the mixtures were centrifuged at 1500 rpm for 20 min, and the supernatant was collected to detect the expression level of […] by ELISA (BD, Human IL-1β ELISA Set II, Cat #557953). IC50 was calculated using GraphPad Prism7.0 software. The results are shown in Table 2, which indicate that: the compounds disclosed herein down-regulate release of mature IL-1β by inhibiting the activity of Caspase-1, and the IC50 is <50 nM.

[2] = test system: Human monocyte cell line THP-1; assay: Detection of THP-1 cell pyroptosis (Caspase-Glo 1 Inflammasome Assay); type: cell-based; settings: 20 nM PMA 48 h, 1 μg/mL LPS, compound 3 h
Procedure, shortened: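 Differentiated with 20 nM PMA for 48 h (50,000 cells/well), then given serum-free medium with 1 μg/mL LPS and compound in a 10-point, 3-fold series from 10 μM for 3 h at 37 °C. Caspase-1 activity read with Caspase-Glo 1 Inflammasome kit; IC50 calculated.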

[3] = Homo sapiens, THP-1, THP-1 pyroptosis

| SMILES | IC50 ([1]; PBMC) [µM] | IC50 [2, 3] [µM] | IC50 [1] [µM] | IC50 ([2]; THP-1 pyroptosis) [µM] |
| --- | --- | --- | --- | --- |
| C[C@@H](c1cc(F)c2c(c1NC(=O)N[S@@](=N)(=O)c1cc(C(C)(C)O)co1)CCC2)C1CC1 (mixture of isomers) [Compound 42-1, (R)- and (S)-N-((5-((R)-1-cyclopropylethyl)-7-fluoro-2,3-dihydro-1H-inden-4-yl)carbamoyl)-4-(2-hydroxypropan-2-yl)furan-2-sulfonimidamide] | 0.0185 | 0.1 to 0.5 | – | – |
| C[C@@H](c1ccc2c(c1NC(=O)NS(=N)(=O)c1cc(C(C)(C)O)co1)CCC2)C1CCC1 (mixture of isomers) [Compound 80-2, (RS)- and (SS)-N-((5-((R)-1-cyclobutylethyl)-2,3-dihydro-1H-inden-4-yl)carbamoyl)-4-(2-hydroxypropan-2-yl)furan-2-sulfonimidamide] | – | – | 0.0148 | ≤ 0.1 |
| Cc1oc(S(=N)(=O)NC(=O)Nc2c(C(C)C3CC3)ccc3c2CCC3)cc1C(C)(C)O (single isomer, unassigned) [Compound 24-2, RS- and SS-N-((5-(1-cyclopropylethyl)-2,3-dihydro-1H-inden-4-yl)carbamoyl)-4-(2-hydroxypropan-2-yl)-5-methylfuran-2-sulfonimidamide] | – | – | 0.0174 | ≤ 0.1 |
| [2H]c1cc([C@@H](C)C2CC2)c(NC(=O)NS(=N)(=O)c2cc(C(C)(C)O)co2)c2c1CCC2 (single isomer, unassigned) [Compound 32-2, (RS, SC)- and (SS, SC)-N-((5-(1-cyclopropylethyl)-2,3-dihydro-1H-inden-4-yl-7-d)carbamoyl)-4-(2-hydroxypropan-2-yl)furan-2-sulfonimidamide] | 0.0289 | – | – | ≤ 0.1 |
| C[C@H](c1ccc2c(c1NC(=O)NS(=O)(=O)c1cc(C(C)(C)O)co1)CCC2)C1CC1 [Compound 7, (S)-N-((5-(1-cyclopropylethyl)-2,3-dihydro-1H-inden-4-yl)carbamoyl)-4-(2-hydroxypropan-2-yl)furan-2-sulfonamide] | 0.0411 | ≤ 0.1 | – | – |
| CC(c1cc(F)c2c(c1NC(=O)NS(=O)(=O)c1cc(C(C)(C)O)co1)CCC2)C1CC1 (stereo not drawn) [Compound 9, N-((5-(1-cyclopropylethyl)-7-fluoro-2,3-dihydro-1H-inden-4-yl)carbamoyl)-4-(2-hydroxypropan-2-yl)furan-2-sulfonamide] | 0.0256 | – | – | – |
| Cc1oc(S(=O)(=O)NC(=O)Nc2c([C@@H](C)C3CC3)ccc3c2CCC3)cc1C(C)(C)O [Compound 23, (S)-N-((5-(1-cyclopropylethyl)-2,3-dihydro-1H-inden-4-yl)carbamoyl)-4-(2-hydroxypropan-2-yl)-5-methylfuran-2-sulfonamide] | 0.005 | 0.1 to 0.5 | – | – |
| [2H]c1cc([C@H](C)C2CC2)c(NC(=O)NS(=O)(=O)c2cc(C(C)(C)O)co2)c2c1CCC2 [Compound 29, (R)-N-((5-(1-cyclopropylethyl)-2,3-dihydro-1H-inden-4-yl-7-d)carbamoyl)-4-(2-hydroxypropan-2-yl)furan-2-sulfonamide] | 0.0185 | 0.1 to 0.5 | – | – |
| C[C@@H](c1cc(F)c2c(c1NC(=O)NS(=O)(=O)c1cc(C(C)(C)O)co1)CCC2)C1CC1 [Compound 41, (R)-N-((5-(1-cyclopropylethyl)-7-fluoro-2,3-dihydro-1H-inden-4-yl)carbamoyl)-4-(2-hydroxypropan-2-yl)furan-2-sulfonamide] | 0.005 | ≤ 0.1 | – | – |
| C[C@H](c1cc(F)c2c(c1NC(=O)NS(=O)(=O)c1cc(C(C)(C)O)co1)CCC2)C1CC1 [Compound 43, (S)-N-((5-(1-cyclopropylethyl)-7-fluoro-2,3-dihydro-1H-inden-4-yl)carbamoyl)-4-(2-hydroxypropan-2-yl)furan-2-sulfonamide] | 0.0116 | 0.5 to 1 | – | – |
| C[C@@H](c1ccc2c(c1NC(=O)NS(=O)(=O)c1cnc(C(C)(C)O)s1)CCC2)C1CC1 [Compound 87, (R)-N-((5-(1-cyclopropylethyl)-2,3-dihydro-1H-inden-4-yl)carbamoyl)-2-(2-hydroxypropan-2-yl)thiazole-5-sulfonamide] | 0.0404 | ≤ 0.1 | – | – |
